{"source": "patent EP3725756A2", "about": "“COMPOSITIONS WITH IMPROVED UREASE-INHIBITING EFFECT COMPRISING AMINES, OR COLORANTS, AND AN ADDUCT OF THE THREE COMPOUNDS N-(N-BUTYL) THIOPHOSPHORIC ACID TRIAMIDE (NBPT), UREA, AND FORMALDEHYDE” (BASF SE, priority 2019, dated 2020)", "assay": "physchem", "format": "physicochemical", "method": "\"Not dissociable\" means that the pKa value (logarithmic measure of the acid dissociation constant) for the reaction alcohol (D) → deprotonated alcohol (D) + H^+ of the hydroxy group in the neutral aqueous phase is more than 9.9, more preferably more than 11, most preferably more than 12, particularly preferably more than 13, for example more than 14 as measured in de-ionized water at 25° C and atmospheric pressure."}
{"smiles": "CC(O)CO", "note": "(stereo not shown) [propane-1,2-diol]", "values": [{"measurement": "pKa", "value": 14.9}]}
